Measurements: the supplement of paper PMC9663587

Key:
[1] = compound: CCN1CCN(Cc2ccc(Nc3ncc(F)c(-c4cc(F)c5nc(C)n(C(C)C)c5c4)n3)nc2)CC1; assay: increase in dead-cell fraction, 72 h; higher = more death;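 note: breast cancer cell lines in 384-well plates, stained with Hoechst plus LIVE/DEAD far red dye and imaged, cells above an LDR intensity threshold counted dead, Hoechst-negative corpses included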
Flavopiridol [2] = compound: T1, CN1CC[C@H](c2c(O)cc(O)c3c(=O)cc(-c4ccccc4Cl)oc23)[C@H](O)C1 [Flavopiridol]; assay: as above
[3] = compound: CC(=O)c1c(C)c2cnc(Nc3ccc(N4CCNCC4)cn3)nc2n(C2CCCC2)c1=O; assay: GR value, 72 h; higher = faster growth (1 = untreated, <0 = killing);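 note: breast cancer and non-malignant breast epithelial lines, nine half-log doses, viable cells counted by Hoechst and LIVE/DEAD dye imaging versus time-zero plates and DMSO controls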
[4] = compound: CCN1CCN(Cc2ccc(Nc3ncc(F)c(-c4cc(F)c5nc(C)n(C(C)C)c5c4)n3)nc2)CC1; assay: as above
THZ1 = compound: CN(C)C/C=C/C(=O)Nc1ccc(C(=O)Nc2cccc(Nc3ncc(Cl)c(-c4c[nH]c5ccccc45)n3)c2)cc1 [THZ1]; assay: as above
Neratinib/HKI272 = compound: CCOc1cc2ncc(C#N)c(Nc3ccc(OCc4ccccn4)c(Cl)c3)c2cc1NC(=O)/C=C/CN(C)C [Neratinib/HKI272]; assay: as above
THZ531 = compound: CN(C)C/C=C/C(=O)Nc1ccc(C(=O)N2CCC[C@@H](Nc3ncc(Cl)c(-c4c[nH]c5ccccc45)n3)C2)cc1 [THZ531]; assay: as above
BSJ-03-123 = compound: CC(=O)c1c(C)c2cnc(Nc3ccc(N4CCN(CCOCCOCCOCCNC(=O)COc5cccc6c5C(=O)N(C5CCC(=O)NC5=O)C6=O)CC4)cn3)nc2n(C2CCCC2)c1=O [BSJ-03-123]; assay: as above
YKL-5-124 = compound: C=CC(=O)Nc1ccc(C(=O)Nc2[nH]nc3c2CN(C(=O)N[C@H](CN(C)C)c2ccccc2)C3(C)C)cc1 [YKL-5-124]; assay: as above
LEE011/Ribociclib = compound: CN(C)C(=O)c1cc2cnc(Nc3ccc(N4CCNCC4)cn3)nc2n1C1CCCC1 [LEE011/Ribociclib]; assay: as above
Flavopiridol [5] = compound: T1, Flavopiridol; assay: as above
[6] = compound: CCc1cnn2c(NCc3ccc[n+]([O-])c3)cc(N3CCCC[C@H]3CCO)nc12; assay: as above

Cell Line: CAL51
- increase in dead-cell fraction ([1]; 0.001 µM): -0.009
- increase in dead-cell fraction ([1]; 0.003162 µM): -0.0216
- increase in dead-cell fraction ([1]; 0.01 µM): -0.032
- increase in dead-cell fraction ([1]; 0.03162 µM): -0.0343
- increase in dead-cell fraction ([1]; 0.1 µM): -0.0329
- increase in dead-cell fraction ([1]; 0.3162 µM): -0.0295
- increase in dead-cell fraction ([1]; 1 µM): -0.0018
- increase in dead-cell fraction ([1]; 3.162 µM): 0.239
- increase in dead-cell fraction ([1]; 10 µM): 0.727
- increase in dead-cell fraction (Flavopiridol [2]; 0.0001 µM): -0.0023
- increase in dead-cell fraction (Flavopiridol [2]; 0.0003162 µM): 0.0009
- increase in dead-cell fraction (Flavopiridol [2]; 0.001 µM): -0.0005
- increase in dead-cell fraction (Flavopiridol [2]; 0.003162 µM): 0.004
- increase in dead-cell fraction (Flavopiridol [2]; 0.01 µM): 0.0023
- increase in dead-cell fraction (Flavopiridol [2]; 0.03162 µM): 0.006
- increase in dead-cell fraction (Flavopiridol [2]; 0.1 µM): 0.011
- increase in dead-cell fraction (Flavopiridol [2]; 0.3162 µM): 0.068
- increase in dead-cell fraction (Flavopiridol [2]; 1 µM): 0.234
- GR value ([3]; 0.0003162 µM): 0.968 GR
- GR value ([3]; 0.001 µM): 1.02 GR
- GR value ([3]; 0.003162 µM): 0.982 GR
- GR value ([3]; 0.01 µM): 0.911 GR
- GR value ([3]; 0.03162 µM): 0.783 GR
- GR value ([3]; 0.1 µM): 0.646 GR
- GR value ([3]; 0.3162 µM): 0.516 GR
- GR value ([3]; 1 µM): 0.446 GR
- GR value ([3]; 3.162 µM): 0.354 GR
- GR value ([4]; 0.001 µM): 0.966 GR
- GR value ([4]; 0.003162 µM): 0.882 GR
- GR value ([4]; 0.01 µM): 0.752 GR
- GR value ([4]; 0.03162 µM): 0.569 GR
- GR value ([4]; 0.1 µM): 0.501 GR
- GR value ([4]; 0.3162 µM): 0.365 GR
- GR value ([4]; 1 µM): 0.207 GR
- GR value ([4]; 3.162 µM): -0.124 GR
- GR value ([4]; 10 µM): -0.46 GR
- GR value (THZ1; 0.0001 µM): 1.05 GR
- GR value (THZ1; 0.0003162 µM): 0.971 GR
- GR value (THZ1; 0.001 µM): 0.953 GR
- GR value (THZ1; 0.003162 µM): 0.953 GR
- GR value (THZ1; 0.01 µM): 0.938 GR
- GR value (THZ1; 0.03162 µM): 0.882 GR
- GR value (THZ1; 0.1 µM): 0.871 GR
- GR value (THZ1; 0.3162 µM): 0.601 GR
- GR value (THZ1; 1 µM): 0.0924 GR
- GR value (Neratinib/HKI272; 0.0003162 µM): 0.983 GR
- GR value (Neratinib/HKI272; 0.001 µM): 1 GR
- GR value (Neratinib/HKI272; 0.003162 µM): 0.938 GR
- GR value (Neratinib/HKI272; 0.01 µM): 1.01 GR
- GR value (Neratinib/HKI272; 0.03162 µM): 1 GR
- GR value (Neratinib/HKI272; 0.1 µM): 0.975 GR
- GR value (Neratinib/HKI272; 0.3162 µM): 0.94 GR
- GR value (Neratinib/HKI272; 1 µM): 0.833 GR
- GR value (Neratinib/HKI272; 3.162 µM): 0.293 GR
- GR value (THZ531; 0.0001 µM): 0.973 GR
- GR value (THZ531; 0.0003162 µM): 0.962 GR
- GR value (THZ531; 0.001 µM): 0.912 GR
- GR value (THZ531; 0.003162 µM): 0.96 GR
- GR value (THZ531; 0.01 µM): 1.01 GR
- GR value (THZ531; 0.03162 µM): 0.937 GR
- GR value (THZ531; 0.1 µM): 0.904 GR
- GR value (THZ531; 0.3162 µM): 0.786 GR
- GR value (THZ531; 1 µM): 0.543 GR
- GR value (BSJ-03-123; 0.001 µM): 0.894 GR
- GR value (BSJ-03-123; 0.003162 µM): 0.912 GR
- GR value (BSJ-03-123; 0.01 µM): 0.915 GR
- GR value (BSJ-03-123; 0.03162 µM): 0.898 GR
- GR value (BSJ-03-123; 0.1 µM): 0.895 GR
- GR value (BSJ-03-123; 0.3162 µM): 0.818 GR
- GR value (BSJ-03-123; 1 µM): 0.763 GR
- GR value (BSJ-03-123; 3.162 µM): 0.76 GR
- GR value (BSJ-03-123; 10 µM): 0.121 GR
- GR value (YKL-5-124; 0.001 µM): 0.748 GR
- GR value (YKL-5-124; 0.003162 µM): 0.59 GR
- GR value (YKL-5-124; 0.01 µM): 0.391 GR
- GR value (YKL-5-124; 0.03162 µM): 0.327 GR
- GR value (YKL-5-124; 0.1 µM): 0.314 GR
- GR value (YKL-5-124; 0.3162 µM): 0.236 GR
- GR value (YKL-5-124; 1 µM): 0.216 GR
- GR value (YKL-5-124; 3.162 µM): 0.165 GR
- GR value (YKL-5-124; 10 µM): -0.0011 GR
- GR value (LEE011/Ribociclib; 0.001 µM): 0.899 GR
- GR value (LEE011/Ribociclib; 0.003162 µM): 0.874 GR
- GR value (LEE011/Ribociclib; 0.01 µM): 0.808 GR
- GR value (LEE011/Ribociclib; 0.03162 µM): 0.772 GR
- GR value (LEE011/Ribociclib; 0.1 µM): 0.693 GR
- GR value (LEE011/Ribociclib; 0.3162 µM): 0.658 GR
- GR value (LEE011/Ribociclib; 1 µM): 0.631 GR
- GR value (LEE011/Ribociclib; 3.162 µM): 0.55 GR
- GR value (LEE011/Ribociclib; 10 µM): 0.396 GR
- GR value (Flavopiridol [5]; 0.0001 µM): 0.98 GR
- GR value (Flavopiridol [5]; 0.0003162 µM): 0.944 GR
- GR value (Flavopiridol [5]; 0.001 µM): 0.962 GR
- GR value (Flavopiridol [5]; 0.003162 µM): 0.909 GR
- GR value (Flavopiridol [5]; 0.01 µM): 0.842 GR
- GR value (Flavopiridol [5]; 0.03162 µM): 0.887 GR
- GR value (Flavopiridol [5]; 0.1 µM): 0.708 GR
- GR value (Flavopiridol [5]; 0.3162 µM): 0.353 GR
- GR value (Flavopiridol [5]; 1 µM): -0.099 GR
- GR value ([6]; 0.0001 µM): 0.999 GR
- GR value ([6]; 0.0003162 µM): 0.954 GR
- GR value ([6]; 0.001 µM): 1.03 GR
- GR value ([6]; 0.003162 µM): 0.974 GR
- GR value ([6]; 0.01 µM): 0.831 GR
- GR value ([6]; 0.03162 µM): -0.218 GR
- GR value ([6]; 0.1 µM): -0.356 GR
- GR value ([6]; 0.3162 µM): -0.355 GR
- GR value ([6]; 1 µM): -0.341 GR
